One assay addresses T1, human NPY1 receptor (Homo sapiens, UniProt P25929).
T1 construct: expressed in transfected cells
T1 sequence (P25929 1-384): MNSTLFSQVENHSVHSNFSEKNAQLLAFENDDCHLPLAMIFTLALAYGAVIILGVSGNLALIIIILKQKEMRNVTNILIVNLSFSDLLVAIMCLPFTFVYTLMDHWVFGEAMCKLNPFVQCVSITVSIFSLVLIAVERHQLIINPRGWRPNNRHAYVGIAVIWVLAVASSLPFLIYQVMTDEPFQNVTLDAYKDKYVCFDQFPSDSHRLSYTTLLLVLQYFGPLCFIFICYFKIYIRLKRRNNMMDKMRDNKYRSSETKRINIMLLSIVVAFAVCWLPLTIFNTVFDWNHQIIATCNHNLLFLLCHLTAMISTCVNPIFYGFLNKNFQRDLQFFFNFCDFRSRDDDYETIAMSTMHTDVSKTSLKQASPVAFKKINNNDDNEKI
Put plainly: Binding affinity at the human NPY1 receptor. The source says: (§1) The design of such compounds can be optimized by determining their binding affinity at the recombinant MCH1, NPY1, NPY2, Gal1, Gal2, Gal3, and 5HT2C receptors. The methods to obtain the cDNA of the receptor, express said receptors in heterologous systems, and carry out assays to determine binding affinity are described in the following publications: human NPY1 (Larhammar et al., 1992), human NPY5 (U.S. Pat. No. 5,602,024, the disclosure of which is hereby incorporated by reference in its entirety into this application), human Gall (Habert-Ortoli et al., 1994), human Gal2 (Smith et al., 1997), human Gal3 (Smith et al., 1998), and rat 5HT2C (Julius et al., 1988). Additionally, the compounds would optimally not bind at the following receptors due to possible side effects: human H1 histamine and human H2 histamine receptors; human alpha-1A adrenergic, human alpha-1D adrenergic, human alpha-2A adrenergic, human alpha-2B adrenergic, and human alpha-2C adrenergic receptors; human dopamine D1, D2, D3, D4, and D5 receptors; the β-adrenoceptor; and the human 5HT1A, human 5HT1B, human 5HT1D, human 5HT1E, human 5HT1F, human 5HT2A, rat 5HT2C, human 5HT4, human 5HT6, and human 5HT7 receptors.

For a further assay, the target named is T2, human NPY5 receptor (Homo sapiens, UniProt Q15761).
T2 construct: expressed in transfected cells
T2 sequence (Q15761 1-445): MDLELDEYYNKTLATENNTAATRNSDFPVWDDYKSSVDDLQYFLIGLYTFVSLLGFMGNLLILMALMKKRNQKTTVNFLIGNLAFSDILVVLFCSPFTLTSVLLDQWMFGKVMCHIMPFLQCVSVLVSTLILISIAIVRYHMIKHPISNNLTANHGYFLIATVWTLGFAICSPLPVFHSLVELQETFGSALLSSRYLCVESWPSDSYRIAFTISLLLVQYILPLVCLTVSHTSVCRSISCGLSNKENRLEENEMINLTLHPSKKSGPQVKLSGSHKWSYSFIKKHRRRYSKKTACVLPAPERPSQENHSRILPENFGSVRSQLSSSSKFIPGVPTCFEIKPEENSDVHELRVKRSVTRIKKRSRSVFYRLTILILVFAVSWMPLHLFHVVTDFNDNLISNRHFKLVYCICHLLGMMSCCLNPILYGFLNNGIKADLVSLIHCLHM
Put plainly: Binding affinity at the human NPY5 receptor. The note with it: read-out: hNPY5 Ki.
From the text: as §1

In the next assay the target is T3, human GALR1 receptor (Homo sapiens, UniProt P47211).
T3 construct: expressed in transfected cells
T3 sequence (P47211 1-349): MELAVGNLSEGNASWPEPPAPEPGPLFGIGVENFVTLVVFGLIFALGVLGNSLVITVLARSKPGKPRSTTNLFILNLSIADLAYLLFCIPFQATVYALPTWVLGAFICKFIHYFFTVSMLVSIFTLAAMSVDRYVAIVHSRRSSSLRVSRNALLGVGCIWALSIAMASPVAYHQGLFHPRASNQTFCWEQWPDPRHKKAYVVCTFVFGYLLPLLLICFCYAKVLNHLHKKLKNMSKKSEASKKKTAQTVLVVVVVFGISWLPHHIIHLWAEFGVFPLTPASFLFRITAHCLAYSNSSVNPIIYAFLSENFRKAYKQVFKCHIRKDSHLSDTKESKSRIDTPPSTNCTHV
Put plainly: Binding affinity at the human GALR1 receptor. To be noted: read-out: hGALR1 Ki.

Another assay has as its target T4, human GALR3 receptor (Homo sapiens, UniProt O60755).
T4 construct: expressed in transfected cells
T4 sequence (O60755 1-368): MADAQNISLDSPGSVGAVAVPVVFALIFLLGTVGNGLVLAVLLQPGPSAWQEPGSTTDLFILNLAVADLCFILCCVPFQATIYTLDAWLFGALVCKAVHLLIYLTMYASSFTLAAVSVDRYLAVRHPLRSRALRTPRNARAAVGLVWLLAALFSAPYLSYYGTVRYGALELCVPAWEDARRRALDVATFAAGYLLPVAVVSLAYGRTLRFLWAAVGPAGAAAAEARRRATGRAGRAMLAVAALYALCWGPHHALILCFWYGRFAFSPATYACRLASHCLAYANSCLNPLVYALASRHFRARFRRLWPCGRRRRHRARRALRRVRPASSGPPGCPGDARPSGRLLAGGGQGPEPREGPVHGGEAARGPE
The assay can be described thus: Binding affinity at the human GALR3 receptor. To be noted: read-out: hGALR3 Ki.

A further assay deals with T5, rat 5HT2C receptor (Rattus norvegicus, UniProt P08909).
T5 construct: expressed in transfected cells
T5 sequence (P08909 33-460): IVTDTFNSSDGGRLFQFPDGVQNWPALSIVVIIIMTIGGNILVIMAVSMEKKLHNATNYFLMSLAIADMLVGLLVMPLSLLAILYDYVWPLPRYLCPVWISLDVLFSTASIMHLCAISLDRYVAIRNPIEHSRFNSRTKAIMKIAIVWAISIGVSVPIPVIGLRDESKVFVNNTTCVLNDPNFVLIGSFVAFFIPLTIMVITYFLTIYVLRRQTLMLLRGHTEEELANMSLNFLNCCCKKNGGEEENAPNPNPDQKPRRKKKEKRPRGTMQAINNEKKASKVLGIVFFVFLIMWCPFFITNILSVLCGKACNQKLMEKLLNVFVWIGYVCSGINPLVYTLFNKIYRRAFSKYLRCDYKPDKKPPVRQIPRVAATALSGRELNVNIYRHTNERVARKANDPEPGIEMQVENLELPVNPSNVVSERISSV
Put plainly: Binding affinity at the rat 5HT2C receptor. To be noted: read-out: r5HT2C Ki. An outline of the steps: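 Affinity measured by a literature binding protocol using rat 5HT2C cDNA expressed heterologously.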

Where two headings read alike, the source gives them in different places.

As a reminder, the Ki is the dissociation constant of the complex between target and ligand, obtained from inhibition or displacement.

Consider `CCCCN(CCCC)c1ccc(CNC[C@H]2CC[C@H](NC(=O)c3cccc4ccccc34)CC2)cc1` [Example 13, N1-[4-([4-(DIBUTYLAMINO)BENZYL]AMINOMETHYL)CYCLOHEXYL]-1-NAPHTH-AMIDE], for which the Ki at human NPY1 receptor (Table 3a, read-out: hMPY1 Ki) is 9.6 µM; at human NPY1 receptor (Table 3b, read-out: hNPY1 Ki) it was 9.6 µM; at human NPY5 receptor (Table 3a), more than 50 µM; at human NPY5 receptor (Table 3b), more than 50 µM; at human GALR1 receptor (Table 3a), 11.3 µM; at human GALR1 receptor (Table 3b), 11.3 µM. Besides, the Ki on human GALR3 receptor (Table 3a) turned out to be 5.98 µM; at human GALR3 receptor (Table 3b), 5.98 µM; at rat 5HT2C receptor (Table 3a), 25 µM; at rat 5HT2C receptor (Table 3b) it was 25 µM.

Values taken from patent US20040038855A1 (priority 1999, published 2004).
